According to article PMC7066533 (Frontiers in Pharmacology, 2020):
Where “and” joins values, the source holds several entries; their conditions need not be identical. Equal entries are not always repeated. Where two headings read alike, the source gives them in different places. Square brackets hold non-standard residues; d marks the D form. Peptide text beside a SMILES is read from it. βAla = NCCC(=O)O

Experiments:
ERK1/2 phosphorylation = experiment: ERK1/2 phosphorylation, western blot; type: cell-based, human
Procedure: HEK-293 cells stably expressing KOPr, U87-MG astrocytoma cells, or normal human astrocytes endogenously expressing KOPr were plated into 6-well plates until 60–70% confluence was reached. Then, the cells were serum-starved for 16–18 h and subsequently exposed to vehicle, LOR17 (1 μM; 0–120 min) or U50,488 (1 μM; 0–120 min). Alternatively, […] and U87-MG cells were exposed to norBNI (10 μM; 30 min prior to LOR17) and then treated with 1 μM LOR17, or they were exposed to increasing concentration of LOR17 (1–100 μM; 30 min). Proteins were extracted as previously reported ([Kuhar et al., 2015]), quantified by means of BCA assay (Pierce) and SDS-page gel electrophoresis performed as previously described for ERK1/2 ([Baiula et al., 2016]) and p38MAPK ([Schattauer et al., 2012]).
Membranes were then incubated with anti-phospho-ERK 1/2 (1:1,000) (Cell Signaling Technology, Danvers, MA, USA), anti-total ERK1/2 antibodies (1:1,000) (Cell Signaling Technology), anti-phospho-p38MAPK antibodies (1:1,000) (Cell Signaling Technology, Danvers, MA, USA), or anti-actin antibodies (1:2,500) (Santa Cruz Biotechnology, Dallas, TX, USA) at 4°C in the presence of BSA (5 g/100 ml) in Tris buffered saline containing Tween-20 (0.1 g/100 ml). […]

U87-MG cells = experiment: Cell proliferation assay ([3H]-thymidine incorporation) in U87-MG cells; type: cell-based, human
Procedure: A cell proliferation assay was carried out as previously reported ([Bedini et al., 2017]). Briefly, U87-MG cells or normal human astrocytes were plated on a 12-well plate and treated as described in the results section or maintained in cell culture medium containing 10% fetal bovine serum. Five hours before the end of the treatments, [methyl-^3H] thymidine (Perkin Elmer) (50 nM final concentration) was added to serum-free cell culture medium, and the plate was incubated at 37°C. Thereafter, the medium was removed, and the cells were washed twice with PBS. Then, 200 μl of PBS was added to each well, and the cells were scraped off and centrifuged at 13,000 g for 3 min at 4°C. The supernatants were then discarded, pellets were re-suspended in 500 μl of cold trichloroacetic acid (10% w/v), incubated on ice for 20 min and centrifuged at 13,000 g for 3 min at 4°C. The supernatant was then discarded, and the pellet was suspended in 500 μl of cold methanol and centrifuged at 3 min for 13,000 g at 4°C. Thereafter, the pellet was suspended in 200 μl of 1 N NaOH and heated at 55°C for 10 min. Samples were then neutralized with 200 μl of 1 N HCl and 350 μl of the labelled DNA incubated in counting vials with 4 ml of Filter Count scintillation liquid (Perkin Elmer Italia). Vials were vortexed and incubated overnight at room temperature, and the radioactivity was determined by liquid scintillation spectrometry.

CD-1 adult male mice [1] = experiment: Warm-water tail-withdrawal test; type: in vivo, mouse
Procedure: The warm-water tail-withdrawal test was performed as previously described ([Bedini et al., 2010]). Briefly, a mouse’s tail was immersed in hot water (52 ± 0.5°C), and the latency to tail withdrawal was measured as an indicator of nociception. Prior to being treated, each mouse was tested, and the latency to tail withdrawal was recorded (control latency, CL). Animals not withdrawing their tails within 5 s were not used (6% of mice). Responding animals were then injected i.p. with either vehicle or one of the compounds (LOR17 or U50,488; 0–20 mg/kg). The KOR antagonist norBNI (10 mg/kg; i.p.) was injected 30 min or 24 h prior to administering LOR17.
Latency to withdrawal was measured at 5, 15, 30, 45, 60, and 90 min after drug administration and defined as the test latency (TL), with a cutoff time of 10 s.

[2] = molecular target: KOPr in normal human astrocytes (Homo sapiens, UniProt P41145); experiment: cell-based; settings: read-out: Emax NHA
Chain of KOPr in normal human astrocytes (P41145 whole entry): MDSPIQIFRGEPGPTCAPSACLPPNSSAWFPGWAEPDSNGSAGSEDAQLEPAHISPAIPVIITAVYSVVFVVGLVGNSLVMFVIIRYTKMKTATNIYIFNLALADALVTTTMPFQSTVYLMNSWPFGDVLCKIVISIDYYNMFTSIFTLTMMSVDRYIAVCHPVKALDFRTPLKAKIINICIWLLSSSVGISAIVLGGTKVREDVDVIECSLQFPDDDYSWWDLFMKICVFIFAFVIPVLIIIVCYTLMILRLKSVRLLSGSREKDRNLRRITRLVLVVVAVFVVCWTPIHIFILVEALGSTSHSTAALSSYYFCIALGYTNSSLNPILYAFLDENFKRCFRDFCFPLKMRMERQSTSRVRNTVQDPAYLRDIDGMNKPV

hKOPr = type: cell-based, human
[3] = molecular target: KOPr in U87-MG human astrocytoma cells (Homo sapiens, UniProt P41145); experiment: cell-based; settings: U-87 MG, read-out: Emax U87-MG
Chain of KOPr in U87-MG human astrocytoma cells (P41145 whole entry): as above

KOPr [4] = molecular target: T1, KOPr (Homo sapiens, UniProt P41145); type: cell-based
T1 sequence (P41145 whole entry): as above

KOPr [5] = molecular target: T1, KOPr; experiment: cell-based
hMOPr = molecular target: T2, hMOPr (Homo sapiens, UniProt P35372); experiment: Displacement binding assay with [3H]DAMGO on HEK-293/hMOPr membranes
T2 construct: expressed in transfected cells
T2 sequence (P35372 whole entry): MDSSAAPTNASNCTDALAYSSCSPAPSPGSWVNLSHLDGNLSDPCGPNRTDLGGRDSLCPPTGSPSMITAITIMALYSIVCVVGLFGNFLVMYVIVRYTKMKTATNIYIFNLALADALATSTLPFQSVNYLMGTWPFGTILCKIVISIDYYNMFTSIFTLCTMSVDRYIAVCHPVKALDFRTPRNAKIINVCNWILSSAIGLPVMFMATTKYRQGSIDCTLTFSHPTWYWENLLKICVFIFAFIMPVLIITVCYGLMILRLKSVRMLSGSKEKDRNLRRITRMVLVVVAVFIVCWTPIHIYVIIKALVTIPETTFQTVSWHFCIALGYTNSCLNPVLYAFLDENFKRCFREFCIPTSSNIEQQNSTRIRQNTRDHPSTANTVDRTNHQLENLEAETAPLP

CD-1 adult male mice [6] = experiment: Hole-board test; type: in vivo, mouse; settings: 10 mg/kg s.c.
Procedure: The hole-board test consisted of a […] plane with 16 flush-mounted cylindrical holes (3 cm diameter) distributed four by four in an equidistant, grid-like manner. Mice were placed on the center of the board one by one and allowed to move about freely for a period of 5 min. Two electric eyes, crossing the plane from midpoint to midpoint of the opposite sides, thus dividing the plane into four equal quadrants, automatically signaled the movement of the animal (counts in 5 min) on the surface of the plane (spontaneous motility). Miniature photoelectric cells in each of the 16 holes recorded (counts in 5 min) the exploration of the holes (exploratory activity) by the mice ([Guerrini et al., 2006]).

hDOPr = molecular target: T3, hDOPr (Homo sapiens, UniProt P41143); experiment: Displacement binding assay with [3H]diprenorphine on HEK-293/hDOPr membranes
T3 construct: expressed in transfected cells
T3 sequence (P41143 whole entry): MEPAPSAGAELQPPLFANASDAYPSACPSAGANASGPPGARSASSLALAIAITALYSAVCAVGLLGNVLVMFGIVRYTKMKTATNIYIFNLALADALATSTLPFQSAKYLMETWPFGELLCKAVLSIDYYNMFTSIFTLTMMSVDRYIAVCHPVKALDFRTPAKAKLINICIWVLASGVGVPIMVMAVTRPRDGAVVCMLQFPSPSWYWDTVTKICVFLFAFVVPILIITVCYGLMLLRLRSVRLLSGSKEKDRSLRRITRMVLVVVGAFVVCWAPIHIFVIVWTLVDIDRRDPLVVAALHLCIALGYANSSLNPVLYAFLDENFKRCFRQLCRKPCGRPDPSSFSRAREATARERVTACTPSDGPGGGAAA

p38MAPK phosphorylation = type: cell-based, human
CD-1 adult male mice [7] = settings: mouse, in vivo
CD-1 adult male mice [8] = settings: mouse, in vivo; remark: listed apart in the source
CD-1 adult male mice [9] = settings: mouse, in vivo; remark: listed apart in the source
normal human astrocytes = type: cell-based; settings: SB203580 2 µM, 30 min prior to U50,488
[10] = norBNI 10 µM 15 min prior, SB203580 2 µM 30 min prior, LOR17 10 μM co-administered

For `Oc1ccc2c3c1O[C@H]1c4[nH]c5c(c4C[C@@]4(O)[C@@H](C2)N(CC2CC2)CC[C@]314)C[C@@]1(O)[C@H]2Cc3ccc(O)c4c3[C@@]1(CCN2CC1CC1)[C@H]5O4` [norBNI, norbinaltorphimine, reference compound], the “LOR17 (1 μM)-mediated increase in ERK1/2 phosphorylation after antagonist” value (ERK1/2 phosphorylation; norBNI 10 μM, 30 min prior to LOR17, HEK-293/hKOPr and U87-MG cells) was “fully reverted”, the “Effect on U50,488 (1 µM)-mediated increase of U87-MG cell proliferation” value (U87-MG cells; [10]) was “prevented” and the “Effect on LOR17-mediated antinociception in the tail-withdrawal test” value (CD-1 adult male mice [1]; norBNI 10 mg/kg i.p.) was “prevented”.
For `O=C1CNC(=O)[C@H](Cc2ccccc2)NC(=O)[C@@H](Cc2c[nH]c3ccccc23)NC(=O)CCN1` [LOR17, c[Phe-Gly-(β-Ala)-D-Trp]] (cyclo(FG[βAla][dW])), the Emax [2] was 88 ± 6%, the “Bias Factor” value (hKOPr) was 853 and the “ΔΔlog(τ/KA)” value (hKOPr) was 2,931. For the same compound, the Emax [3] was 87 ± 4%, the “log(τ/KA) β-arrestin 2” value (KOPr [4]) was 3,432 and the “Δlog(τ/KA) β-arrestin 2” value (KOPr [4]) was -2,67. For the same compound, the “β-arrestin 2 recruitment at KOPr” value (KOPr [4]) was “very week β-arrestin 2 recruitment at KOPr and only at concentrations higher than 1 μM”, the “log(τ/KA) G Protein” value (KOPr [5]) was 8,856 and the “Δlog(τ/KA) G Protein” value (KOPr [5]) was 0,261. For the same compound, the Emax (KOPr [5]; HEK293, read-out: Emax HEK-293/KOR) was 85 ± 5%, the “ERK1/2 phosphorylation levels vs vehicle” value (ERK1/2 phosphorylation) was “significant increase in ERK1/2 phosphorylation only after 15 min of exposure” and the Ki (hMOPr) was greater than 100 µM. The “Board (locomotor activity)” value (CD-1 adult male mice [6]; 0 min) was 89.2 ± 7.3 counts in 5 min, the “Hole (exploratory activity)” value (CD-1 adult male mice [6]; 0 min) was 37.2 ± 3.9 counts in 5 min and the “Board (locomotor activity)” value (CD-1 adult male mice [6]; 30 min) was 97.2 ± 16.9 counts in 5 min. For the same compound, the “Hole (exploratory activity)” value (CD-1 adult male mice [6]; 30 min) was 39.0 ± 4.6 counts in 5 min, the Ki (hDOPr) was greater than 100 µM and the “Effect on U50,488-induced p38MAPK phosphorylation” value (p38MAPK phosphorylation) was “counteracted U50,488-induced p38MAPK phosphorylation in a concentration-dependent fashion”. For the same compound, the “p38MAPK phosphorylation vs vehicle” value (p38MAPK phosphorylation) was “does not influence p38MAPK phosphorylation”, the “Effect on oxaliplatin-induced thermal hypersensitivity, single s.c. administration” value (CD-1 adult male mice [7]) was “fully reversed the oxaliplatin-dependent hypersensitivity” and the “Efficacy in cold plate test after repeated treatment” value (CD-1 adult male mice [7]) was “maintains its efficacy”. The “Licking latency (maximal effect)” value (CD-1 adult male mice [7]) was 18.2 ± 1.4 s and 19.6 ± 1.7 s, the “Dose from which licking latency increase takes effect” value (CD-1 adult male mice [7]; sc) was 1 mg/kg and the “ED50, oxaliplatin-induced thermal hypersensitivity (cold plate test)” value (CD-1 adult male mice [7]; sc) was 6.63 ± 0.23 mg/kg. The “Number of writhes vs vehicle” value (CD-1 adult male mice [8]) was “significantly reduced the number of writhes”, the “ED50, writhing test” value (CD-1 adult male mice [8]; ip) was 5.74 ± 0.46 mg/kg and the “Effect on U50,488 (1 µM)-mediated increase of U87-MG cell proliferation” value (U87-MG cells) was “prevented the increase in U87-MG cell proliferation”. For the same compound, the “U87-MG cell proliferation rate vs vehicle” value (U87-MG cells) was “did not alter the U87-MG cell proliferation rate”, the “Antinociception in the tail-withdrawal test” value (CD-1 adult male mice [1]; mouse, in vivo) was “antinociceptive response in a dose- and time-dependent fashion” and the “ED50, warm-water tail-withdrawal test” value (CD-1 adult male mice [1]; mouse, in vivo, ip) was 10.07 ± 0.36 mg/kg. For the same compound, the Mobility time (CD-1 adult male mice [9]) was 91.6 ± 12.3 s.
With `C[S+]([O-])c1ccc(-c2nc(-c3ccncc3)c(-c3ccc(F)cc3)[nH]2)cc1` (stereo not drawn) [SB203580, reference compound] the “Effect on U50,488 (1 µM)-enhanced normal human astrocyte cell proliferation” value (normal human astrocytes) was “abolished” and the “Effect on U50,488 (1 µM)-mediated increase of U87-MG cell proliferation” value (U87-MG cells; [10]) was “prevented”.
